Source: PubChem BioAssay AID1963971 (Molecular Pharmacology Branch, DTP, NCI, 2024)

System: 953936-095-R-J2-PDC spheroids with HUVEC/MSC, viability
Test: Anticancer human tumor 953936-095-R-J2-PDC patient-derived cervical squamous cell carcinoma cell line growth inhibition [PI3K]
Conditions: for IC50: curve of first compound; for viability, T/C: stronger effect = lower value
Outline: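 High-throughput combination screen: PI3K inhibitors crossed with targeted small molecules on complex spheroids of tumor cells, HUVEC and MSCs at 37 degrees C, 5% CO2. Top concentration was at or near clinical Cmax (otherwise 10 microM), with half-log decrements.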

[1] = second compound 0.0316 µM, first compound 0.0316 µM
[2] = second compound 0.0316 µM, first compound 0.1 µM
[3] = second compound 0.0316 µM, first compound 0.316 µM
[4] = second compound 0.0316 µM, first compound 1 µM
[5] = second compound 0.0316 µM, first compound 3.16 µM
[6] = second compound 0.0316 µM, first compound 10 µM
[7] = second compound 0.1 µM, first compound 0.0316 µM
[8] = second compound 0.1 µM, first compound 0.1 µM
[9] = second compound 0.1 µM, first compound 0.316 µM
[10] = second compound 0.1 µM, first compound 1 µM
[11] = second compound 0.1 µM, first compound 3.16 µM
[12] = second compound 0.1 µM, first compound 10 µM
[13] = second compound 0.316 µM, first compound 0.0316 µM
[14] = second compound 0.316 µM, first compound 0.1 µM
[15] = second compound 0.316 µM, first compound 0.316 µM
[16] = second compound 0.316 µM, first compound 1 µM
[17] = second compound 0.316 µM, first compound 3.16 µM
[18] = second compound 0.316 µM, first compound 10 µM
[19] = second compound 1 µM, first compound 0.0316 µM
[20] = second compound 1 µM, first compound 0.1 µM
[21] = second compound 1 µM, first compound 0.316 µM
[22] = second compound 1 µM, first compound 1 µM
[23] = second compound 1 µM, first compound 3.16 µM
[24] = second compound 1 µM, first compound 10 µM
[25] = second compound 3.16 µM, first compound 0.0316 µM
[26] = second compound 3.16 µM, first compound 0.1 µM
[27] = second compound 3.16 µM, first compound 0.316 µM
[28] = second compound 3.16 µM, first compound 1 µM
[29] = second compound 3.16 µM, first compound 3.16 µM
[30] = second compound 3.16 µM, first compound 10 µM
[31] = second compound 10 µM, first compound 0.0316 µM
[32] = second compound 10 µM, first compound 0.1 µM
[33] = second compound 10 µM, first compound 0.316 µM
[34] = second compound 10 µM, first compound 1 µM
[35] = second compound 10 µM, first compound 3.16 µM
[36] = second compound 10 µM, first compound 10 µM
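Further: spheroids exposed to compounds for seven days before read-out.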

Question: With `C#Cc1c(F)ccc2cc(O)cc(-c3ncc4c(N5CC6CCC(C5)N6)nc(OCC56CCCN5CC(F)C6)nc4c3F)c12` (centres undefined) + Cc1nc(NC(=O)N2CCCC2C(N)=O)sc1-c1ccnc(C(C)(C)C(F)(F)F)c1 as the compound, how does the IC50 (second compound 0.0316 µM) read?
Answer: > 10 µM

Question: And the IC50 (second compound 0.1 µM)?
Answer: > 10 µM

Question: What about the IC50 (second compound 0.316 µM) of the same compound?
Answer: 1.35 µM

Question: And the IC50 (second compound 1 µM)?
Answer: < 0.0316 µM

Question: And the IC50 (second compound 3.16 µM)?
Answer: < 0.0316 µM

Question: What about the IC50 (second compound 10 µM) of the same compound?
Answer: < 0.0316 µM

Question: And the viability, T/C [1]?
Answer: 97.6%

Question: What about the viability, T/C [2] of the same compound?
Answer: 102%

Question: What about the viability, T/C [3] of the same compound?
Answer: 92.3%

Question: And the viability, T/C [4]?
Answer: 82.2%

Question: And the viability, T/C [5]?
Answer: 71.3%

Question: What about the viability, T/C [6] of the same compound?
Answer: 67.9%

Question: What about the viability, T/C [7] of the same compound?
Answer: 79.7%

Question: What about the viability, T/C [8] of the same compound?
Answer: 81.7%

Question: What about the viability, T/C [9] of the same compound?
Answer: 92.8%

Question: What about the viability, T/C [10] of the same compound?
Answer: 74.6%

Question: And the viability, T/C [11]?
Answer: 61.9%

Question: And the viability, T/C [12]?
Answer: 51.9%

Question: And the viability, T/C [13]?
Answer: 64.7%

Question: And the viability, T/C [14]?
Answer: 59.1%

Question: What about the viability, T/C [15] of the same compound?
Answer: 57%

Question: What about the viability, T/C [16] of the same compound?
Answer: 49.4%

Question: And the viability, T/C [17]?
Answer: 48.9%

Question: What about the viability, T/C [18] of the same compound?
Answer: 38.2%

Question: What about the viability, T/C [19] of the same compound?
Answer: 43.8%

Question: And the viability, T/C [20]?
Answer: 42.3%

Question: What about the viability, T/C [21] of the same compound?
Answer: 39%

Question: And the viability, T/C [22]?
Answer: 34.7%

Question: What about the viability, T/C [23] of the same compound?
Answer: 28.3%

Question: What about the viability, T/C [24] of the same compound?
Answer: 21.6%

Question: And the viability, T/C [25]?
Answer: 25.2%

Question: And the viability, T/C [26]?
Answer: 23.8%

Question: And the viability, T/C [27]?
Answer: 22.5%

Question: And the viability, T/C [28]?
Answer: 17.2%

Question: What about the viability, T/C [29] of the same compound?
Answer: 12.3%

Question: What about the viability, T/C [30] of the same compound?
Answer: 10.1%

Question: And the viability, T/C [31]?
Answer: 10.3%

Question: And the viability, T/C [32]?
Answer: 10%

Question: What about the viability, T/C [33] of the same compound?
Answer: 8.35%

Question: What about the viability, T/C [34] of the same compound?
Answer: 7.39%

Question: And the viability, T/C [35]?
Answer: 6.74%

Question: And the viability, T/C [36]?
Answer: 4.92%

Question: `CC1(C)CCC(Nc2ncc(C(F)(F)F)c(-c3c[nH]c4c(P(C)(C)=O)c(C#N)ccc34)n2)CN1` (centres undefined) + Cc1nc(NC(=O)N2CCCC2C(N)=O)sc1-c1ccnc(C(C)(C)C(F)(F)F)c1 was tested. Which IC50 (second compound 0.0316 µM) did it give?
Answer: 0.0316 µM

Question: What about the IC50 (second compound 0.1 µM) of the same compound?
Answer: 0.0316 µM

Question: And the IC50 (second compound 0.316 µM)?
Answer: < 0.0316 µM

Question: What about the IC50 (second compound 1 µM) of the same compound?
Answer: < 0.0316 µM

Question: And the IC50 (second compound 3.16 µM)?
Answer: < 0.0316 µM

Question: What about the IC50 (second compound 10 µM) of the same compound?
Answer: < 0.0316 µM

Question: And the viability, T/C [1]?
Answer: 45.1%

Question: What about the viability, T/C [2] of the same compound?
Answer: 50%

Question: And the viability, T/C [3]?
Answer: 46.5%

Question: What about the viability, T/C [4] of the same compound?
Answer: 52.4%

Question: What about the viability, T/C [5] of the same compound?
Answer: 55.8%

Question: And the viability, T/C [6]?
Answer: 8.23%

Question: What about the viability, T/C [7] of the same compound?
Answer: 45.9%

Question: And the viability, T/C [8]?
Answer: 39.1%

Question: What about the viability, T/C [9] of the same compound?
Answer: 42.2%

Question: What about the viability, T/C [10] of the same compound?
Answer: 42.6%

Question: What about the viability, T/C [11] of the same compound?
Answer: 54.3%

Question: And the viability, T/C [12]?
Answer: 5.8%

Question: And the viability, T/C [13]?
Answer: 38.9%

Question: And the viability, T/C [14]?
Answer: 37.8%

Question: And the viability, T/C [15]?
Answer: 40.8%

Question: What about the viability, T/C [16] of the same compound?
Answer: 38.9%

Question: And the viability, T/C [17]?
Answer: 38.3%

Question: What about the viability, T/C [18] of the same compound?
Answer: 3.36%

Question: What about the viability, T/C [19] of the same compound?
Answer: 30.8%

Question: What about the viability, T/C [20] of the same compound?
Answer: 27.1%

Question: What about the viability, T/C [21] of the same compound?
Answer: 26%

Question: And the viability, T/C [22]?
Answer: 28.1%

Question: And the viability, T/C [23]?
Answer: 33.4%

Question: And the viability, T/C [24]?
Answer: 1.62%

Question: And the viability, T/C [25]?
Answer: 18.2%

Question: And the viability, T/C [26]?
Answer: 19.4%

Question: And the viability, T/C [27]?
Answer: 17.2%

Question: And the viability, T/C [28]?
Answer: 20.1%

Question: What about the viability, T/C [29] of the same compound?
Answer: 13.8%

Question: What about the viability, T/C [30] of the same compound?
Answer: 0.46%

Question: What about the viability, T/C [31] of the same compound?
Answer: 9.15%

Question: What about the viability, T/C [32] of the same compound?
Answer: 9.91%

Question: And the viability, T/C [33]?
Answer: 10.7%

Question: And the viability, T/C [34]?
Answer: 10.3%

Question: And the viability, T/C [35]?
Answer: 5.73%

Question: And the viability, T/C [36]?
Answer: 0.31%
